Data on one compound can be found in patent US10246712B2, “Genetic or pharmacological reduction of PERK enhances cortical- and hippocampus-dependent cognitive function” (Carmel-Haifa University Economic Corp. Ltd, priority 2015, dated 2019).

For one experiment, the system named is pyramidal CA1 neurons. Kind of experiment: Whole cell patch clamp recording of intrinsic neuronal properties. Format: cell-based, mouse. The note with it: vs vehicle. How it is done:
Mice were sacrificed by cervical dislocation and three hundred micrometer coronal brain slices were cut with a Campden-1000 Vibrotome. Slices were cut in ice-cold cutting solution containing (in mM) 110 sucrose, 60 NaCl, 3 KCl, 1.25 NaH2PO4, 28 NaHCO3, 0.5 CaCl2, 7 MgCl2, 5 glucose, and 0.6 ascorbate and recovered for 30 min at 37° C. in artificial cerebrospinal fluid (ACSF) containing (in mM) 125 NaCl, 2.5 KCl, 1.25 NaH2PO4, 25 NaHCO3, 25 D-glucose, 2 CaCl2, and 1 MgCl2, followed by additional recovery for 30 min in room-temperature ACSF. After initial recovery, slices were placed in a submerged chamber and maintained at 34° C. in ACSF (2 ml/min). All solutions were constantly carboxygenated with 95% O2+5% CO2.
Cells infected with PERK-shRNA- or scrambled sequence PERK shRNA (PERK-Scr)-containing AAV were identified by green fluorescence. Recordings were amplified by multiclamp 700B and digitized by Digidata 1440 (Molecular Devices). The recording electrode was pulled from a borosilicate glass pipette (3-5 MΩ) using an electrode puller (P-1000; Sutter Instruments) and filled with a K-gluconate-based internal solution containing (in mM) 120 K-gluconate, 20 KCl, 10 HEPES, 2 MgCl2, 4 Na2ATP, 0.5 TrisGTP, 14 phosphocreatine, osmolarity 290 mOsm, and pH 7.3. The recording glass pipettes were patched onto the soma region of pyramidal cells. Voltages for liquid junction potential (+10 mV) were not corrected online. All current-clamp recordings were low-pass filtered at 10 kHz and sampled at 50 kHz. Series resistance was compensated and only series resistance <20 MΩ was included in the data set. Pipette capacitance was ˜99% compensated. The method for measuring active intrinsic properties was based on a modified version of Kaphzan H et al., 2013. For recordings with GSK2606414, 100 nM inhibitor was applied in the pipette solution, and recordings were performed as described above.
Resting membrane potential (RMP) was measured 5 min after the seal was ruptured. The I-V (current-voltage) relationship used to calculate number of action potentials obtained by injection of 1 s pulses (−150 to +300 pA in 50 pA increments).
Input resistance (Rin) was calculated from the voltage response to a hyperpolarizing current pulse (−150 pA). For measurements of a single AP, after initial assessment of the current, which was required to induce an action potential at 15 ms from the start of the current injection with large steps (50 pA), we injected a series of brief depolarizing currents for 10 ms in steps of 10 pA increments. The first action potential that appeared on the 5 ms time point was analyzed. A curve of dV/dt was created for that trace, and the 30 V/s point in the rising slope of the action potential was considered as threshold (Kaphzan et al., 2013).
AP amplitude was measured from the equipotential point of the threshold to the spike peak, while AP duration was measured at the point of half-amplitude of the spike. The mAHP (medium after-hyperpolarization) was measured using prolonged (3 s), high-amplitude (3 nA) somatic current injections to initiate time-locked action potential trains of 50 Hz frequency and duration (10-50 Hz, 1 or 3 s) in pyramidal cells. These action potential trains generated prolonged (˜20 s) AHPs, the amplitudes and integrals of which increased with the number of action potentials in the spike train. AHP was measured from the equipotential point of the threshold to the anti-peak of the same spike (Gulledge et al., 2013).
Series resistance, input resistance, and membrane capacitance were monitored during the entire experiment. Changes in these parameters (which were monitored throughout the entire duration of the experiment) greater than 10% were criteria for exclusion of data. AU experimental analyses were performed in a blind manner; the identity of the mouse from which neurons were recorded (PERK shRNA or scrambled) was not known to the person conducting the experiments and measurements.
Background: Patch clamp records ionic current or voltage across a cell membrane.

The next experiment relates to p-eIF2α. Briefly: Immunoblot of p-eIF2α levels in CA1 punches. The note with it: CA1 punches after 100 nM infusion into CA1, adult mice; vs vehicle. Format: in vivo, mouse. Background: Immunoblotting shows a protein as a band on a membrane.

Take `Cn1cc(-c2ccc3c(c2)CCN3C(=O)Cc2cccc(C(F)(F)F)c2)c2c(N)ncnc21` [GSK2606414, 7-methyl-5-(1-{[3-(trifluoromethyl)phenyl]acetyl}-2,3-dihydro-1H-indol-5-yl)-7H-pyrrolo[2,3-d]pyrimidin-4-amine]: in the experiment on pyramidal CA1 neurons (100 nM in pipette solution, acute hippocampal slices, increased current steps), the “action potential (AP) frequency” value is reported as “increased”. Besides, in the experiment with pyramidal CA1 neurons (100 nM in pipette solution), the AP amplitude result is “longer”, the AP mid width entry was “wider”, the AP threshold result is “hyperpolarized” and the input resistance result was “Neither resting membrane potential (RMP) nor input resistance was changed”. Besides, in the experiment with pyramidal CA1 neurons (100 nM in pipette solution), the “resting membrane potential (RMP)” value is given as “Neither resting membrane potential (RMP) nor input resistance was changed”. In addition, the mAHP entry in the experiment on pyramidal CA1 neurons (100 nM, acute hippocampal slices) is “significantly reduced”. Moreover, in the experiment on p-eIF2α, the p-eIF2α levels entry is “significant reduction”.
